Reference: patent US4374773A, “Triazolo-benzodiazepine derivatives” (Hoffmann-La Roche Inc., priority 1980, dated 1983)

Legend:
[1] = acute toxicity, single oral administration to mice; settings: mouse, in vivo
Excerpt: (§1) The following Table contains results which have been obtained in the previously described experiment with representative compounds of formula I. In this Table there are given for each compound in question the dosage administered (in mg/kg p.o.) as well as the percentage variation in the urine volume, the sodium excretion and the potassium excretion in comparison with the control animals (i.e. in comparison with the animals treated only with aldosterone). Moreover, the Table contains data relating to the acute toxicity of the compounds investigated (LD 50 in mg/kg in the case of single oral administration to mice).

aldosterone [2] = test: aldosterone-antagonistic properties in adrenalectomised rats (urine volume, sodium and potassium excretion); type: in vivo, Female Holtzmann rats; settings: aldosterone s.c. 30 min later, urine collected 3 hours, control = aldosterone only
Experimental: If compounds of formula I are administered to the animals before the treatment with aldosterone, then there is observed, in comparison with animals which are treated only with aldosterone (control animals), a pronounced increase of the sodium excretion (i.e. the sodium retention caused by aldosterone is antagonised), whereas the potassium excretion and the urine volume are influenced to a lesser extent.
The standard experiment is carried out as follows:
Female Holtzmann rats (150-180 g) are bilaterally adrenalectomised 70 to 74 hours before the beginning of the experiment. After the operation, the animals receive a customary rat dry feed and 0.9 percent sodium chloride solution for drinking. 16 to 17 hours before the beginning of the experiment the feed is removed from the animals, but they can subsequently drink, as before, 0.9 percent sodium chloride solution ad libitum. At the beginning of the experiment the substance to be tested as an aldosterone-antagonist is administered to the animals by means of a stomach probe. 30 minutes later the animals receive a subcutaneous injection of 4 mmg/kg of aldosterone. After a further 90 minutes, the urinary bladders of the animals are emptied by careful suprapubic pressure, whereupon the animals are placed individually in metabolic cages without food and without drink. The urine of the animals is then collected for 3 hours, whereupon their urinary bladders are once more emptied. The spontaneously excreted urine and the remaining urine obtained at the conclusion of the experiment by pressing-out the urinary bladders are collected in graduated centrifuge glasses. Sodium and potassium concentrations in the urine are determined with a flame photometer.
as §1

aldosterone [3] = test: as above; type: in vivo, Female Holtzmann rats; settings: compared with untreated animals

SMILES | LD50 [1] [mg/kg] | potassium excretion [K+] in %, based on control animals (aldosterone [2]; 1 mg/kg p.o.) [%] | sodium excretion [Na+] in %, based on control animals (aldosterone [2]; 1 mg/kg p.o.) [%] | urine volume in %, based on control animals (aldosterone [2]; 1 mg/kg p.o.) [%] | potassium excretion [K+] in %, based on control animals (aldosterone [2]; 10 mg/kg p.o.) [%] | sodium excretion [Na+] in %, based on control animals (aldosterone [2]; 10 mg/kg p.o.) [%] | urine volume in %, based on control animals (aldosterone [2]; 10 mg/kg p.o.) [%] | excreted urine volume, effect of aldosterone (aldosterone [3]) | potassium excretion, effect of aldosterone (aldosterone [3]) | sodium excretion, effect of aldosterone (aldosterone [3])
Cc1nnc2n1-c1ccc(NC(=O)NCCO)cc1C(c1ccccc1F)=NC2(C)C [Example 4, 1-[6-(o-fluorophenyl)-1,4,4-trimethyl-4H-s-triazolo[4,3-a][1,4]benzodiazepin-8-yl]-3-(2-hydroxyethyl)urea] | > 5000 | 90 | 256 | 112 | – | – | – | – | – | –
CN(C)C(=O)Nc1ccc2c(c1)C(c1ccccc1F)=NC(C)(C)c1nncn1-2 [Example 5, 3-[6-(o-fluorophenyl)-4,4-dimethyl-4H-s-triazolo[4,3-a][1,4]benzodiazepin-8-yl]-1,1-dimethylurea] | > 5000 | 65 | 238 | 106 | – | – | – | – | – | –
CN(C)C(=O)Nc1ccc2c(c1)C(c1ccccc1Cl)=NCc1nncn1-2 [Example 8, 3-[6-(o-chlorophenyl)-4H-s-triazolo[4,3-a][1,4]benzodiazepin-8-yl]-1,1-dimethylurea] | > 5000 | – | – | – | 100 | 252 | 131 | – | – | –
Cc1nnc2n1-c1ccc(NC(=O)N(C)C)cc1C(c1ccccc1Cl)=NC2 [Example 10, 3-[6-(o-chlorophenyl)-1-methyl-4H-s-triazolo[4,3-a][1,4]-benzodiazepin-8-yl]-1,1-dimethylurea] | > 5000 | – | – | – | 112 | 252 | 103 | – | – | –
Cc1nnc2n1-c1ccc(NC(=O)NCCO)cc1C(c1ccccc1Cl)=NC2(C)C [Example 12, 1-[6-(o-chlorophenyl)-1,4,4-trimethyl-4H-s-triazolo[4,3-a][1,4]benzodiazepin-8-yl]-3-(2-hydroxyethyl)urea] | > 5000 | 75 | 215 | 75 | – | – | – | – | – | –
CC1(C)N=C(c2ccccc2Cl)c2cc(NC(=O)N3CCCC3)ccc2-n2cnnc21 [Example 13, N-[6-(o-chlorophenyl)-4,4-dimethyl-4H-s-triazolo[4,3-a][1,4]benzodiazepin-8-yl]-1-pyrrolidinecarboxamide] | > 5000 | 72 | 155 | 97 | – | – | – | – | – | –
C[C@]12CCC(=O)C=C1CC[C@@H]1[C@@H]2[C@@H](O)C[C@]2(C=O)[C@@H](C(=O)CO)CC[C@@H]12 [aldosterone] | – | – | – | – | – | – | – | reduction of the excreted urine volume | increased potassium excretion | pronounced reduction of the sodium excretion
